# Data as given in ChEMBL document CHEMBL1201862, “PubChem BioAssay data set” (2004).
# Active and inactive are the calls of the source.
# Assays:
# Genome polyprotein = Genome polyprotein (dengue virus type 2, UniProt P29990); assay: flavivirus cap methylation enzyme inhibition – biochemical, confirmation dose response, primary screen (AID 588689); type: functional
# Cytochrome P450 3A4 = Cytochrome P450 3A4 (Homo sapiens, UniProt P08684);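 also: CYP3A4 tested as one member of a cytochrome P450 panel screen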
# Cytochrome P450 2C9 = Cytochrome P450 2C9 (Homo sapiens, UniProt P11712)
# [1] = molecular target: T1, Heat shock factor protein 1 (Mus musculus, UniProt P38532); assay: enhancement of HSF1-driven luciferase signal – cell-based, NIH3T3, luminescence, dose retest, confirmation (AID 435004); type: functional;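 also: stress induced by proteasome inhibitor MG132 added 30 min after compound; luciferase reporter driven by HSF1 response element in NIH3T3 cells; actives raise luminescence as potentiators of the MG132 stress response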
# T1 sequence (P38532 whole entry): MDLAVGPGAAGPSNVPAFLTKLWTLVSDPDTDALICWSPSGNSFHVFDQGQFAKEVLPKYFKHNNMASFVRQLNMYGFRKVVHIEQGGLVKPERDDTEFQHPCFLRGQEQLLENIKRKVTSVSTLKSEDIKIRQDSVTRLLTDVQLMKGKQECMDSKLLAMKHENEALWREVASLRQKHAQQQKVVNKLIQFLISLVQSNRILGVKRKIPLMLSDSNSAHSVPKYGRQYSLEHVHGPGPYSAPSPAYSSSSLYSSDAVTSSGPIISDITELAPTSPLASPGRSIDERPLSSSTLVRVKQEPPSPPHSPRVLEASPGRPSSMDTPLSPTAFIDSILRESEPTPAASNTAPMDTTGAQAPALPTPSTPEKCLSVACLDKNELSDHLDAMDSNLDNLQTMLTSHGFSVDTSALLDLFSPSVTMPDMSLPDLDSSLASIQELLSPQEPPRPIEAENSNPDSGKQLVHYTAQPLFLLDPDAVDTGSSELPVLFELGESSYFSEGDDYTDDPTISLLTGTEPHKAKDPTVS
# [2] = molecular target: Induced myeloid leukemia cell differentiation protein Mcl-1 (Homo sapiens, UniProt Q07820); type: functional
# cells = type: functional, cell-based; conditions: HEK-CNG
# INS1 = assay: INS-1E survival protection against cytokine death – cell-based, luminescence, retest, dose response (AID 449756); type: functional; conditions: Rattus norvegicus;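 also: cell death triggered by IL-1 beta plus TNF-alpha plus IFN-gamma mixture; protective hits raise ATP signal compared with cytokine alone wells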
# Galanin receptor type 3 = molecular target: T2, Galanin receptor type 3 (Homo sapiens, UniProt O60755); assay: Fluorescence-based cell-based primary high throughput dose response assay to identify antagonists of the Galanin Receptor 3 (GalR3).; type: functional
# T2 sequence (O60755 whole entry): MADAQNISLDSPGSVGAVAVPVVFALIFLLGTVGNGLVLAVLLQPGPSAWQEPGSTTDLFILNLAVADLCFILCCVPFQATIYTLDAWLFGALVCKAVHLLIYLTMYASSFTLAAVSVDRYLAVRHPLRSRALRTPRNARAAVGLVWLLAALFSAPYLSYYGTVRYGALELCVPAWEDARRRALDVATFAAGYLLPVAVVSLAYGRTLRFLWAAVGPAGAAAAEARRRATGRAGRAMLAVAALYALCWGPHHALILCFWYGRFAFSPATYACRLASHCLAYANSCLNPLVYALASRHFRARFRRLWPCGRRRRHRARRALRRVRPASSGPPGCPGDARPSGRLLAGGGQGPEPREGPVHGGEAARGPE
# [3] = molecular target: FAD-linked sulfhydryl oxidase ALR (Homo sapiens, UniProt P55789); assay: ALR-catalysed DTT oxidation blockers – biochemical, H2O2 detection, luminescence, cherry-pick, dose response (AID 493248)
# Cytochrome P450 2D6 = Cytochrome P450 2D6 (Homo sapiens, UniProt P10635);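 also: CYP2D6 member of a cytochrome P450 panel assay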
# Cytochrome P450 2C19 = Cytochrome P450 2C19 (Homo sapiens, UniProt P33261); assay: Cytochrome panel assay with activity outcomes. Panel member name: p450-cyp2c19 Compounds with AC50 equal or less than 10 uM are considered active; type: functional; conditions: read-out: AC50
# [4] = blockers of bursicon-stimulated LGR2 cAMP reporter – cell-based, HEK293, CRE-luciferase reporter, cherry pick, set 2, dose response (AID 743343); type: functional;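 also: transfected cells were stimulated with diluted bursicon conditioned medium after compound addition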
# [5] = blockade of melanocortin 4 receptor signaling – cell-based, plate reader, cherry pick, counter-screen for LGR2 antagonist project, dose response (AID 743444); type: functional;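 also: transfected HEK 293 cells stimulated with alpha-MSH peptide; potency of inhibitors of the alpha-MSH evoked signal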
# H9c2 = assay: cells; type: functional, cell-based; conditions: Rattus norvegicus, H9c2, Myocardium;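 also: confirmatory concentration-response retest of ultra-high-throughput screening hits for modulation of myocardial damage; cell death induced by hydrogen peroxide oxidative stress; compound pretreatment for 60 min then peroxide exposure for 2 h; potency is for protecting the cells against peroxide damage rather than for killing them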
# [6] = blockers of HIV-1 ZM109 envelope-driven cell-cell fusion – HeLa effector, CEM target cells, luciferase, cherry-pick, dose response (AID 652058); type: functional, cell-based;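 also: luciferase signal from HIV-1 Env mediated cell-cell fusion of effector and target cells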
# [7] = HIV-1 AD8 envelope cell-cell fusion blockers – cherry-pick, dose response (AID 652062); type: functional, cell-based;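 also: luciferase signal from cell-cell fusion driven by HIV-1 clade B AD8 Env; potency is for inhibitors of fusion seen as a drop in luminescence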
# [8] = blockers of HIV-1 envelope-mediated cell-cell fusion – cherry-pick, dose response (AID 652057); type: functional, cell-based
# [9] = off-target signal loss in HeLa-CEM21 co-culture – HeLa F-luc CTL cells, cherry-picked, counter-screen for HIV-1 Env fusion inhibitor project, dose response (AID 652040); type: functional, cell-based;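 also: potency for signal decrease marking cytotoxic or nonspecific inhibition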
# [10] = molecular target: T3, Histone-lysine N-methyltransferase NSD2 (Homo sapiens, UniProt O96028); type: biochemical
# T3 sequence (O96028 whole entry): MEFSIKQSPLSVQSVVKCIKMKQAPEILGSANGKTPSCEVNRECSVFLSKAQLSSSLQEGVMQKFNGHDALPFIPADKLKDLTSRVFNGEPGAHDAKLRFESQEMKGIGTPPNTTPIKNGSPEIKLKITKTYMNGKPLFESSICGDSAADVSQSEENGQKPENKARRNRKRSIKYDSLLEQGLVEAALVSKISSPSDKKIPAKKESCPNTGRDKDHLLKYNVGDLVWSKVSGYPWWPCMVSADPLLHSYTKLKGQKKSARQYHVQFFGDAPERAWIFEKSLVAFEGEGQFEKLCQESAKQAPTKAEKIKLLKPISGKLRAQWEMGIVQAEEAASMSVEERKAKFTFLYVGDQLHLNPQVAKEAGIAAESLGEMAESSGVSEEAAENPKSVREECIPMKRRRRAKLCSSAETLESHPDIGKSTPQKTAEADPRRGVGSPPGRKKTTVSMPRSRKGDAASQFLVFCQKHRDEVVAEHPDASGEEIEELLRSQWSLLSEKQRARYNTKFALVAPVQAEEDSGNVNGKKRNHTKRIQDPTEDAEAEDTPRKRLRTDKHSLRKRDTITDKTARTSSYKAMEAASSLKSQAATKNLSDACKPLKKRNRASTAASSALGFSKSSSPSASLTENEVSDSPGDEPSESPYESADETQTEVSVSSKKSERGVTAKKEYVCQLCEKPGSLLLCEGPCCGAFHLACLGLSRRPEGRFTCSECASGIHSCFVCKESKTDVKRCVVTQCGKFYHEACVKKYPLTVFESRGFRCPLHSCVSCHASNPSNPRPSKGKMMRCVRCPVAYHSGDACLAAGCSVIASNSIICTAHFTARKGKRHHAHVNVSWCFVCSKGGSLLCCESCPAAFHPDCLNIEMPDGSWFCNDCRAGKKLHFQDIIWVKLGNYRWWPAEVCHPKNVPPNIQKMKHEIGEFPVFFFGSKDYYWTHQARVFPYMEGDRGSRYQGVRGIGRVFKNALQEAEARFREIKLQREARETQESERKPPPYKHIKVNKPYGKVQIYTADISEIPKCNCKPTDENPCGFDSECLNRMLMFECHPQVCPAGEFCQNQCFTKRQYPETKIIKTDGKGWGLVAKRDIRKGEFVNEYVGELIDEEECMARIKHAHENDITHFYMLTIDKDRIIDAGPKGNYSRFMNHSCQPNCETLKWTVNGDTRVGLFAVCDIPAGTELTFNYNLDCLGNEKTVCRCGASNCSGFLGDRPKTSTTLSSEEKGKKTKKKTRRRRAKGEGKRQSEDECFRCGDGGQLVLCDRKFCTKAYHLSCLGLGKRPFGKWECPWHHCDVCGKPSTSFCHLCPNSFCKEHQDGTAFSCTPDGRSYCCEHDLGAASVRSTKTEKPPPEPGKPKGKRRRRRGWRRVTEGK
# [11] = Luminescence Cell-Based Dose Confirmation HTS to Identify Inhibitors of Platelet Dense Granule Release. [Related pubchem assays: 1663 (Primary HTS), 1678 (Summary of Project)]; type: functional
# [12] = molecular target: Luciferin 4-monooxygenase (Photinus pyralis, UniProt P08659); assay: inhibition of purified Photinus pyralis luciferase – biochemical, luminescence, dose response (AID 1891)
# [13] = HEK-293T viability loss after treatment – luminescence, T-cell screen hits, cytotoxicity control for TCR NF-kB inhibitor project, dose response (AID 489026); type: functional, cell-based;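 also: cells exposed to compound about 14 hours before the viability readout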
# [14] = reduction of Shn3 3'UTR-driven luciferase in osteoblasts – cell-based, Clone20 osteoblasts, firefly luciferase, cherry-picked, dose response (AID 624132); type: functional;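 also: firefly luciferase luminescence from reporter carrying the Shn3 3'UTR in osteoblasts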
# [15] = loss of viability in HepG2 cells – cell-based, CellTiter-Glo, cherry-picked, cytotoxicity control for Shn3 inhibitor project, dose response (AID 624134); type: functional
# [16] = non-specific 3'UTR reporter inhibition in Clone20-Shn3RL – cell-based, Renilla luciferase, cherry-picked, counter-screen for Shn3 inhibitor project, dose response (AID 624133); type: functional
# [17] = Trypanosoma cruzi growth suppression in host cells – NIH3T3 host cells, beta-gal luminescence, confirmation (AID 2044); type: functional, cell-based;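 also: intracellular parasites grown in NIH/3T3 mouse fibroblasts as host cells; luminescent beta-galactosidase reporter signal from transgenic T. cruzi replicating inside host cells; inhibitors lower the luminescence signal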
# [18] = NIH3T3 cell viability loss – ATP luminescence, mouse fibroblasts, counter-screen, dose response (AID 2010); type: functional, cell-based;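 also: cells exposed to compound for about 90 hours before reading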
# Chain of Cytochrome P450 2C9 (P11712 whole entry): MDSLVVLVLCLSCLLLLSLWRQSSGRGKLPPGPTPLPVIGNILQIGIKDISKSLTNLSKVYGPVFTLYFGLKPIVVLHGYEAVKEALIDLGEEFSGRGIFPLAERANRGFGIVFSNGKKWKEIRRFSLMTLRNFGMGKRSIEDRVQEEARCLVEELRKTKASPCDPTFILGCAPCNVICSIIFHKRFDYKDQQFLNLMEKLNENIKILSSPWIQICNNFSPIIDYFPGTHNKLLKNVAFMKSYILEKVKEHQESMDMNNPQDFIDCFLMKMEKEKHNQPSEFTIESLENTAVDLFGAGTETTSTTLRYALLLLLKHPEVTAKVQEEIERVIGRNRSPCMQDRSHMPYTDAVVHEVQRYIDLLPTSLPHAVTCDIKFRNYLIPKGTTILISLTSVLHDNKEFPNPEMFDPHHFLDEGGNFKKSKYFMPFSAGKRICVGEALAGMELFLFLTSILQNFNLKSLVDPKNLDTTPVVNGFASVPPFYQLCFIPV
# Chain of Genome polyprotein (P29990 2492-3391 limits assumed): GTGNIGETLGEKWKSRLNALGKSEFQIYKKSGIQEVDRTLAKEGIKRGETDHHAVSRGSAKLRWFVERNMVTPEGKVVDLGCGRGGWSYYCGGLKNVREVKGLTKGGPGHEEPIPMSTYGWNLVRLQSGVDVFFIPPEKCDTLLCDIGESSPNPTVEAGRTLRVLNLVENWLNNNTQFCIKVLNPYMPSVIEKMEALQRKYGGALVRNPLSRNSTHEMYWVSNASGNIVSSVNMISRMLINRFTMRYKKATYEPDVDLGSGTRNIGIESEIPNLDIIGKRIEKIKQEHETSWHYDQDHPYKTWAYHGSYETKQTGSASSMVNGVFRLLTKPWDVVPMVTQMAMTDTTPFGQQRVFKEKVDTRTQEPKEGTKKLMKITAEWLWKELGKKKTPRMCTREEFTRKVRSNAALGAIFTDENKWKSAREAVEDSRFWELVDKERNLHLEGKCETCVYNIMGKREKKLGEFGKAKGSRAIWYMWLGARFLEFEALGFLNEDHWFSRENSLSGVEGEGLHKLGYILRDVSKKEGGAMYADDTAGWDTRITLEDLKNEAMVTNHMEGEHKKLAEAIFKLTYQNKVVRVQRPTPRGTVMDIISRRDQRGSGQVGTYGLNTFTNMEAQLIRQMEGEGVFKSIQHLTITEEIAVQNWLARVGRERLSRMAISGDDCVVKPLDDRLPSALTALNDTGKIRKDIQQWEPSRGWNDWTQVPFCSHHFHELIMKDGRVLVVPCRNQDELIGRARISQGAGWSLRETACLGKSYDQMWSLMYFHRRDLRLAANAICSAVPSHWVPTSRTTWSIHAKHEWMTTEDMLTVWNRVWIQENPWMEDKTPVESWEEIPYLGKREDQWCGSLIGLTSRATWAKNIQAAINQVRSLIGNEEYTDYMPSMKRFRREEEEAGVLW
# Chain of Cytochrome P450 3A4 (P08684 whole entry): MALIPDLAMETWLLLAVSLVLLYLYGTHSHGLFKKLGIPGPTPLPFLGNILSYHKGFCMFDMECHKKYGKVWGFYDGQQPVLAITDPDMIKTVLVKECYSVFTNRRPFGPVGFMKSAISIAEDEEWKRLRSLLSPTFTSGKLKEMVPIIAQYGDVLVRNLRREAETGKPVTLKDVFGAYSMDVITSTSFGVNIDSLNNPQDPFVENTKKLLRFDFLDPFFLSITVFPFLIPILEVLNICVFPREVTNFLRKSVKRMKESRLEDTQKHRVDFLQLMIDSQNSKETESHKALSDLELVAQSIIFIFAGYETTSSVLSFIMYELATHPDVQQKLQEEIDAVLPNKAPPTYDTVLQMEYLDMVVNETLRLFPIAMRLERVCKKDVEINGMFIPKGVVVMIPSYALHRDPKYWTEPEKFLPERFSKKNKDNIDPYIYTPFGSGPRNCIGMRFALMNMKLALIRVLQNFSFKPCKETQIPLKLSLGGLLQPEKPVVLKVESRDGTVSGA
# Chain of Induced myeloid leukemia cell differentiation protein Mcl-1 (Q07820 whole entry): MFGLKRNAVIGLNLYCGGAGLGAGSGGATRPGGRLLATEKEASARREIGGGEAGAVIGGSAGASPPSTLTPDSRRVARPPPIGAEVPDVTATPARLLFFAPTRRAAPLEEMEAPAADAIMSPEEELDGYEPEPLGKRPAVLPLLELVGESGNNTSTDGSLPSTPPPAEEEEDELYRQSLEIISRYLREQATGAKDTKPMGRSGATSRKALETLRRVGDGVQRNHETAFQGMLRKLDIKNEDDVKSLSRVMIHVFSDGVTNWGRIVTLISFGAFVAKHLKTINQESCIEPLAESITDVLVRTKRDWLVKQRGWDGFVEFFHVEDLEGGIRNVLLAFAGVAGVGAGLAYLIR
# Chain of Cytochrome P450 2C19 (P33261 whole entry): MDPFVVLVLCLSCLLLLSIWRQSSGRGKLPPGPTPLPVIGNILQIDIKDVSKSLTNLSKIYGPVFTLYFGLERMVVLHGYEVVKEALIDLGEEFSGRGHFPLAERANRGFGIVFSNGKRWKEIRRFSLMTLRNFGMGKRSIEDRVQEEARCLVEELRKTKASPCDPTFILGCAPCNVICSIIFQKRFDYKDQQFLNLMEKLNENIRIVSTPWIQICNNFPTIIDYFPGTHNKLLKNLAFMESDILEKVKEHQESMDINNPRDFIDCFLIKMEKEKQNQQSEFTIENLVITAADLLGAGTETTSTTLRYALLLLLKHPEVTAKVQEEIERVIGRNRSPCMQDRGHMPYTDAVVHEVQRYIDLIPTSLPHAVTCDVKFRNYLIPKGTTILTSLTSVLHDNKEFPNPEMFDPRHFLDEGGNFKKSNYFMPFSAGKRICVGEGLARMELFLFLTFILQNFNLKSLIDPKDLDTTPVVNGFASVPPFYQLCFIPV
# Chain of Luciferin 4-monooxygenase (P08659 whole entry): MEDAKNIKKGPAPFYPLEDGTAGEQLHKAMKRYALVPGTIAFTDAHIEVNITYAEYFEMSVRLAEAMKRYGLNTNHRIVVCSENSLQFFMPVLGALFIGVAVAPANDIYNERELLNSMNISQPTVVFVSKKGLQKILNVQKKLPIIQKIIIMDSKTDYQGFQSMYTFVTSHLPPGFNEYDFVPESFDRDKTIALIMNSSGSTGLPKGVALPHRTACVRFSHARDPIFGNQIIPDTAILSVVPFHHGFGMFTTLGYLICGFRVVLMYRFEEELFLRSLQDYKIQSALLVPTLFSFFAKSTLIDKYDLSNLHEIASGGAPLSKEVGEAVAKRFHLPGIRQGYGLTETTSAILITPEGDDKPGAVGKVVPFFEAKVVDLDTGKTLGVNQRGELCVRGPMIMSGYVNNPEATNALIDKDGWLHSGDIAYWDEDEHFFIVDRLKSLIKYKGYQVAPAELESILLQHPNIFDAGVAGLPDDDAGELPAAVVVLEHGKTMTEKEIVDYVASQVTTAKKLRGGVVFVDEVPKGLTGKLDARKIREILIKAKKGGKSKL
# Chain of Cytochrome P450 2D6 (P10635 whole entry): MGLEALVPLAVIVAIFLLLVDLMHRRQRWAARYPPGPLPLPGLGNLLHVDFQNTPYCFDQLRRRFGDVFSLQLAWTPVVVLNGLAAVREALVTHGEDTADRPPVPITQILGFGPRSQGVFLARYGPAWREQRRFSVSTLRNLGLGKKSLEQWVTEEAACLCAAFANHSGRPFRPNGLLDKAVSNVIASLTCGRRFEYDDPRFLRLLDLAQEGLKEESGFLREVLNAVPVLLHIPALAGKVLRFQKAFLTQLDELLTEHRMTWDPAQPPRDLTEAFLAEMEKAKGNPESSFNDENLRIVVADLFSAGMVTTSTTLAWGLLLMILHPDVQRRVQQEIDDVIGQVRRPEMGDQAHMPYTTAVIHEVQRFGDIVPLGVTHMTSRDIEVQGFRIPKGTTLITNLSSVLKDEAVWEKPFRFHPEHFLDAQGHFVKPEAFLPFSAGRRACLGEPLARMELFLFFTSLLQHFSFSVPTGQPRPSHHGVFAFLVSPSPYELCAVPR
# Chain of FAD-linked sulfhydryl oxidase ALR (P55789 whole entry): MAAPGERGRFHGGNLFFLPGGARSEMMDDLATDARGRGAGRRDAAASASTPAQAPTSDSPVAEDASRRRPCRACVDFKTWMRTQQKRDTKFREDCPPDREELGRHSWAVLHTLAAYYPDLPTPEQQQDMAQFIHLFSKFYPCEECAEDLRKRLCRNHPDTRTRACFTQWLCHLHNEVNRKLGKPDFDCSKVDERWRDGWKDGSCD
compound,measurement,setting,value
O=C(O)c1[nH]c2ccccc2c1C(c1cccc(O)c1)c1c(C(=O)O)[nH]c2ccccc12,IC50,Genome polyprotein,23.2 µM (active)
O=C(CCCn1c(=S)[nH]c2ccc(Br)cc2c1=O)NCC1CCCO1 (centres undefined),AC50,Cytochrome P450 3A4,35.5 µM (inconclusive)
same,AC50,Cytochrome P450 2C9,inconclusive
same,EC50,[1],> 260 µM (inactive)
CCn1c(SC)nc(=O)c(C(c2ccc(OC)c(O)c2)c2c(O)n(CC)c(SC)nc2=O)c1O,IC50,Genome polyprotein,50 µM (active)
Cc1ccc(-c2ccc(/C=C3/NC(=O)NC3=O)o2)cc1[N+](=O)[O-],IC50,[2],4.36 µM (active)
CN1CCN(c2ccc(CNS(=O)(=O)Cc3cccc(C(F)(F)F)c3)cc2)CC1,EC50,cells,> 29.9 µM (inactive)
same,AC50,INS1,4.36 µM (active)
same,IC50,Galanin receptor type 3,2.08 µM (active)
COc1ccc(N2CCC(CNC(=O)Nc3ccc(OC)cc3OC)C2)cc1 (centres undefined),IC50,[2],1.14 µM (active)
same,AC50,[3],17.2 µM (active)
same,AC50,Cytochrome P450 2D6,28.2 µM (inconclusive)
O=C(Nc1nc[nH]n1)c1ccc([N+](=O)[O-])cc1[N+](=O)[O-],AC50,Cytochrome P450 3A4,14.1 µM (inconclusive)
same,AC50,Cytochrome P450 2C19,39.8 µM (inconclusive)
same,AC50,Cytochrome P450 2C9,inconclusive
O=C(O)CCCN1C(=O)/C(=C\c2ccccc2OCc2ccccc2)SC1=S,IC50,Genome polyprotein,36.7 µM (active)
Cc1ccc(-c2nc(-c3ccncc3)no2)c(Cl)c1,AC50,[4],10.3 µM (active)
same,AC50,[5],12.5 µM (active)
Cc1ccc2cc(C#N)c(N3CCN(C(=O)c4cccs4)CC3)nc2c1,IC50,H9c2,> 79 µM (inactive)
C[C@H]1Cn2cnc(C(=O)N3CCN(c4ccccc4)CC3)c2C(=O)N1,AC50,[6],6.04 µM (active)
same,AC50,[7],13.4 µM (active)
same,AC50,[8],3.57 µM (active)
same,AC50,[9],7.64 µM (active)
COc1ccc(NC(=O)Cc2c(SC)c3ccccc3n2Cc2ccccc2)cc1,IC50,[2],6.18 µM (not active)
O=C(Cn1[nH]c(=O)c2ccccc2c1=O)N1CCN(S(=O)(=O)c2ccc(Cl)cc2)CC1,IC50,H9c2,> 79 µM (inactive)
CCOC(=O)NCCc1c(C)nc2c(c(C)nn2C(C)(C)C)c1C,AC50,[10],> 20 µM (inactive)
COc1ccccc1C(=O)NN1C(=O)C2C3C=CC(O3)C2C1=O (centres undefined),AC50,Cytochrome P450 3A4,17.8 µM (inconclusive)
same,EC50,[11],> 112 µM (not active)
same,AC50,Cytochrome P450 2C9,inconclusive
same,EC50,[12],> 112 µM (not active)
O=C(Nc1cccc(C(F)(F)F)c1)c1sc(Cl)nc1C(F)(F)F,IC50,[13],> 80 µM (inactive)
same,AC50,[14],9.06 µM (active)
same,AC50,[15],> 70 µM (inactive)
same,AC50,[16],15.8 µM (active)
COC(=O)CCCCC1=CCC2C(=O)C=C(O)C2C1 (centres undefined),AC50,[10],> 20 µM (inactive)
CC(C(=O)NC1CCCC1)N(Cc1ccco1)C(=O)c1snc(C(=O)NC2CCCC2)c1N (centres undefined),IC50,[2],8.77 µM (not active)
O=C(COC(=O)c1[nH]nc2ccccc12)NCCc1ccc(Cl)cc1,EC50,cells,> 29.9 µM (inactive)
same,IC50,Galanin receptor type 3,2.87 µM (active)
Cc1c(-c2ccccc2)oc2c(C(=O)OCC(=O)Nc3ccc(C(N)=O)cc3)cccc2c1=O,IC50,H9c2,> 79 µM (inactive)
O=C1c2cccnc2C(Nc2ccc(S(=O)(=O)N3CCCCCC3)cc2)N1Cc1ccccc1 (centres undefined),AC50,[6],30.5 µM (active)
same,AC50,[8],27.2 µM (active)
same,AC50,[9],32.2 µM (active)
COc1ccc(C(=O)Nc2ccc3[nH]c(-c4cccc(OC)c4)cc(=O)c3c2)cc1,IC50,[13],> 80 µM (inactive)
CCS(=O)(=O)N1Cc2ccccc2CC1C(=O)NC(C)C12CC3CC(CC(C3)C1)C2 (centres undefined),AC50,[6],3.91 µM (active)
same,AC50,[7],3.56 µM (active)
same,AC50,[8],3.24 µM (active)
same,AC50,[9],4.99 µM (active)
Cc1ccc(O)c(CNc2cccc3cccnc23)c1,AC50,[10],> 20 µM (inactive)
same,AC50,INS1,13.2 µM (active)
COc1ccc(C(=O)Nc2cc(C)nn2-c2nc3ccccc3[nH]2)c(OC)c1,IC50,H9c2,7.52 µM (active)
same,EC50,[17],2.51 µM (active)
same,EC50,[18],> 60 µM (not active)
N#Cc1ccc(C(c2nnnn2CCc2ccccc2)N2CCCCCC2)cc1 (centres undefined),AC50,[6],12.1 µM (active)
same,AC50,[7],10.2 µM (active)
same,AC50,[8],4.92 µM (active)
same,AC50,[9],20.2 µM (active)
COc1ccc2nc(O)c(CN(Cc3nnnn3Cc3ccccc3)CC3CCCO3)cc2c1 (centres undefined),AC50,[6],5.31 µM (active)
same,AC50,[7],33.1 µM (active)
same,AC50,[8],4.18 µM (active)
same,AC50,[9],7.73 µM (active)
same,IC50,H9c2,16.5 µM (active)
Cc1ccc(NC(=O)CSc2nc(-c3ccco3)cc(C(F)(F)F)n2)cc1C,IC50,[13],> 80 µM (inactive)
Oc1ccc2c(c1)nc(O)c1ccccc12,IC50,H9c2,> 79 µM (inactive)
CN(C)c1ccc(C(CNC(=O)c2ccccc2Br)c2c[nH]c3ccccc23)cc1 (centres undefined),IC50,[2],2.82 µM (not active)
